# Values quoted from earlier work, collected in patent publication US20200275650A1, “NOVEL POLYMER COATED CHLO[…]” (priority 2017, published 2020).
# Details: technical chlorothalonil; well documented
compound,measurement,value
"N#Cc1c(Cl)c(Cl)c(Cl)c(C#N)c1Cl [technical chlorothalonil, chlorothalonil]",Median Lethal Concentration (acute inhalation toxicity),0.1 mg/L
